Calls of active or inactive are those of the source. No cut-off for these calls is given here.
Columns and labels:
[1] = tested on: Fusarium odoratissimum; test: Growth inhibition of Fusarium oxysporum f. sp. cubense race 4 isolate CAV 031 at 100 ug/ml after 7 days; type: functional, organism-based
[2] = tested on: Fusarium odoratissimum; test: Growth inhibition of Fusarium oxysporum f. sp. cubense race 4 isolate CAV 031 at 1 ug/ml after 7 days; type: functional, organism-based
[3] = tested on: Fusarium odoratissimum; test: Growth inhibition of Fusarium oxysporum f. sp. cubense race 4 isolate CAV 031 at 50 ug/ml after 7 days; type: functional, organism-based
[4] = tested on: Fusarium odoratissimum; test: Growth inhibition of Fusarium oxysporum f. sp. cubense race 4 isolate CAV 031 at 10 ug/ml after 7 days; type: functional, organism-based
[5] = tested on: Fusarium odoratissimum; test: Antifungal activity against Fusarium oxysporum f. sp. cubense race 4 at 10 times recommended dose incubated with 10^2 spore/ml for 5 min measured after 4 days; type: functional, organism-based
[6] = tested on: Fusarium odoratissimum; test: Antifungal activity against Fusarium oxysporum f. sp. cubense race 4 incubated with 10^2 spore/ml for 5 to 30 min measured after 4 days; type: functional, organism-based
[7] = tested on: Fusarium odoratissimum; test: Antifungal activity against Fusarium oxysporum f. sp. cubense race 4 at 0.01 times recommended dose incubated with 10^2 spore/ml for 5 min measured after 4 days; type: functional, organism-based
[8] = tested on: Fusarium odoratissimum; test: Antifungal activity against Fusarium oxysporum f. sp. cubense race 4 incubated with 10^2 spore/ml for 5 min measured after 4 days; type: functional, organism-based
[9] = tested on: Fusarium odoratissimum; test: Growth inhibition of Fusarium oxysporum f. sp. cubense race 4 isolate CAV 086 at 5 ug/ml after 7 days; type: functional, organism-based
[10] = tested on: Fusarium odoratissimum; test: Antifungal activity against Fusarium oxysporum f. sp. cubense race 4 infected in Cavendish banana plant assessed as reduction in disease severity at 25 ug a.i./ml applied as soil drench treatment immediately after planting measured after 7 weeks in greenhouse conditions; type: functional; parameters: scale not given: the % may be the effect or the level left
[11] = tested on: Fusarium odoratissimum; test: Antifungal activity against Fusarium oxysporum f. sp. cubense race 4 infected in Cavendish banana plant assessed as reduction in disease severity at 25 ug a.i./ml applied as root dip treatment for 10 min measured after 7 weeks in greenhouse conditions; type: functional; parameters: scale not given: the % may be the effect or the level left
[12] = tested on: Fusarium odoratissimum; test: Antifungal activity against Fusarium oxysporum f. sp. cubense race 4 infected in Cavendish banana plant assessed as reduction in disease severity at 25 ug a.i./ml applied as soil drench treatment 1 week after planting measured after 7 weeks in greenhouse conditions; type: functional; parameters: scale not given: the % may be the effect or the level left
[13] = tested on: Fusarium oxysporum; test: Antifungal activity against Fusarium oxysporum infected tomato plant grown in hydroponic system applied as curative treatment relative to control; type: functional
[14] = tested on: Fusarium odoratissimum; test: Growth inhibition of Fusarium oxysporum f. sp. cubense race 4 isolate CAV 086 at 1 ug/ml after 7 days; type: functional, organism-based
[15] = tested on: Fusarium odoratissimum; test: Growth inhibition of Fusarium oxysporum f. sp. cubense race 4 isolate CAV 086 at 10 ug/ml after 7 days; type: functional, organism-based
[16] = tested on: Fusarium oxysporum; test: Antifungal activity against Fusarium oxysporum infected tomato plant grown in hydroponic system applied as preventive treatment relative to control; type: functional
[17] = tested on: Fusarium odoratissimum; test: Growth inhibition of Fusarium oxysporum f. sp. cubense race 4 isolate CAV 086 at 50 ug/ml after 7 days; type: functional, organism-based

CO/C=C(/C(=O)OC)c1ccccc1Oc1cc(Oc2ccccc2C#N)ncn1
growth inhibition (GI) [1]: inactive | growth inhibition (GI) [2]: inactive | growth inhibition (GI) [3]: inactive | growth inhibition (GI) [4]: inactive

CO/N=C(/C(=O)OC)c1ccccc1COc1ccccc1C
growth inhibition (GI) [1]: inactive | growth inhibition (GI) [2]: inactive | growth inhibition (GI) [3]: inactive | growth inhibition (GI) [4]: inactive

OCl
Activity [5]: Active | Activity [6]: Active | Activity [7]: inactive | Activity [8]: Dose-dependent effect

CCCCNC(=O)n1c(NC(=O)OC)nc2ccccc21 [BENOMYL]
growth inhibition (GI) [1]: Active | growth inhibition (GI) [3]: Active | growth inhibition (GI) [9]: Active | growth inhibition (GI) [4]: Active | Activity [10]: 22.2% | Activity [11]: 66.7% | Activity [12]: 72.2%

CCCN(CCOc1c(Cl)cc(Cl)cc1Cl)C(=O)n1ccnc1 [PROCHLORAZ]
Activity [5]: Active | growth inhibition (GI) [1]: Active | growth inhibition (GI) [2]: Active | growth inhibition (GI) [3]: Active | Activity [13]: 34.4% | growth inhibition (GI) [4]: Active | Activity [10]: 38.9% | growth inhibition (GI) [14]: Active | Activity [11]: 77.8% | growth inhibition (GI) [15]: Active | Activity [16]: 69.9% | Activity [12]: 50% | Activity [8]: Dose-dependent effect | growth inhibition (GI) [17]: Active

CCCC1COC(Cn2cncn2)(c2ccc(Cl)cc2Cl)O1 (stereo not drawn) [PROPICONAZOLE]
growth inhibition (GI) [1]: Active | growth inhibition (GI) [9]: Active | Activity [10]: 44.4% | Activity [11]: 75% | Activity [12]: 52.8%

Reference: ChEMBL document CHEMBL3046113, “Evaluation of fungicides and sterilants for potential application in the management of Fusarium wilt of banana” (Crop Prot, 2007)
